{
  "source": "PubChem BioAssay (NCI)",
  "assay_in_all_cases": "NCI tumour cell line growth inhibition, 48 h",
  "key": {"[1]": {"test_system": "UO-31 renal"}, "[2]": {"test_system": "LOX IMVI melanoma"}, "[3]": {"test_system": "DMS 273 small cell lung"}, "[4]": {"test_system": "SR leukemia"}, "[5]": {"test_system": "OVCAR-8 ovarian"}, "[6]": {"test_system": "HL-60(TB) leukemia"}, "[7]": {"test_system": "HCC-2998 colon"}, "[8]": {"test_system": "TK-10 renal"}, "[9]": {"test_system": "LXFL 529 NSCLC"}, "[10]": {"test_system": "OVCAR-5 ovarian"}, "[11]": {"test_system": "XF 498 CNS"}, "[12]": {"test_system": "UACC-62 melanoma"}, "[13]": {"test_system": "M14 melanoma"}, "[14]": {"test_system": "HCT-15 colon"}, "[15]": {"test_system": "SF-268 CNS"}, "[16]": {"test_system": "UACC-257 melanoma"}, "[17]": {"test_system": "SN12C renal"}, "[18]": {"test_system": "NCI-H460 lung"}, "[19]": {"test_system": "ACHN renal"}, "[20]": {"test_system": "HT29 colon"}, "[21]": {"test_system": "COLO 205 colon"}, "[22]": {"test_system": "MOLT-4 leukemia"}, "[23]": {"test_system": "K-562 leukemia"}, "[24]": {"test_system": "MALME-3M melanoma"}, "[25]": {"test_system": "HOP-18 NSCLC"}, "[26]": {"test_system": "CCRF-CEM leukemia"}, "[27]": {"test_system": "RPMI-8226 leukemia"}, "[28]": {"test_system": "786-0 renal"}, "[29]": {"test_system": "KM12 colon"}, "[30]": {"test_system": "DLD-1 colon"}, "[31]": {"test_system": "NCI-H226 lung"}, "[32]": {"test_system": "SK-MEL-2 melanoma"}, "[33]": {"test_system": "A549 NSCLC"}, "[34]": {"test_system": "SK-OV-3 ovarian"}, "[35]": {"test_system": "IGROV1 ovarian"}, "[36]": {"test_system": "HOP-92 NSCLC"}, "[37]": {"test_system": "HCT-116 colon"}, "[38]": {"test_system": "OVCAR-4 ovarian"}, "[39]": {"test_system": "SF-295 CNS"}, "[40]": {"test_system": "SF-539 CNS"}, "[41]": {"test_system": "SK-MEL-5 melanoma"}, "[42]": {"test_system": "NCI-H23 lung"}, "[43]": {"test_system": "NCI-H522 lung"}, "[44]": {"test_system": "OVCAR-3 ovarian"}, "[45]": {"test_system": "SNB-19 CNS"}, "[46]": {"test_system": "EKVX NSCLC"}, "[47]": {"test_system": "CAKI-1 renal"}, "[48]": {"test_system": "SNB-78 CNS"}, "[49]": {"test_system": "M19-MEL melanoma"}, "[50]": {"test_system": "U251 CNS"}, "[51]": {"test_system": "DMS 114 small cell lung"}, "[52]": {"test_system": "RXF 393 renal"}, "[53]": {"test_system": "SK-MEL-28 melanoma"}, "[54]": {"test_system": "HOP-62 NSCLC"}, "[55]": {"test_system": "KM20L2 colon"}},
  "note": "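Growth conditions: 96-well plates. Treatment: test compound, 48 hours, 5 concentrations. Analysis: linear interpolation between bracketing concentrations; unreached endpoints set to highest concentration. The concentration for full growth arrest is given as TGI.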",
  "data": [
    {"smiles": "COc1cc(C2c3cc4c(cc3[C@H](NS(C)(=O)=O)C3COC(=O)[C@H]23)OCO4)cc(OC)c1OC", "note": "(some centres undefined)", "values": [
      {"measurement": "TGI", "setting": "[1]", "value": "> 100", "unit": "µM"},
      {"measurement": "TGI", "setting": "[2]", "value": "> 100", "unit": "µM"},
      {"measurement": "TGI", "setting": "[3]", "value": "> 100", "unit": "µM"},
      {"measurement": "TGI", "setting": "[4]", "value": "> 100", "unit": "µM"},
      {"measurement": "TGI", "setting": "[5]", "value": "> 100", "unit": "µM"},
      {"measurement": "TGI", "setting": "[6]", "value": 883, "unit": "nM"},
      {"measurement": "TGI", "setting": "[7]", "value": "> 100", "unit": "µM"},
      {"measurement": "TGI", "setting": "[8]", "value": "> 100", "unit": "µM"},
      {"measurement": "TGI", "setting": "[9]", "value": "> 100", "unit": "µM"},
      {"measurement": "TGI", "setting": "[10]", "value": "> 100", "unit": "µM"},
      {"measurement": "TGI", "setting": "[11]", "value": "> 100", "unit": "µM"},
      {"measurement": "TGI", "setting": "[12]", "value": "> 100", "unit": "µM"},
      {"measurement": "TGI", "setting": "[13]", "value": "> 100", "unit": "µM"},
      {"measurement": "TGI", "setting": "[14]", "value": "> 100", "unit": "µM"},
      {"measurement": "TGI", "setting": "[15]", "value": "> 100", "unit": "µM"},
      {"measurement": "TGI", "setting": "[16]", "value": "> 100", "unit": "µM"},
      {"measurement": "TGI", "setting": "[17]", "value": "> 100", "unit": "µM"},
      {"measurement": "TGI", "setting": "[18]", "value": "> 100", "unit": "µM"},
      {"measurement": "TGI", "setting": "[19]", "value": "> 100", "unit": "µM"},
      {"measurement": "TGI", "setting": "[20]", "value": "> 100", "unit": "µM"},
      {"measurement": "TGI", "setting": "[21]", "value": 436, "unit": "nM"},
      {"measurement": "TGI", "setting": "[22]", "value": 18.5, "unit": "µM"},
      {"measurement": "TGI", "setting": "[23]", "value": "> 100", "unit": "µM"},
      {"measurement": "TGI", "setting": "[24]", "value": "> 100", "unit": "µM"},
      {"measurement": "TGI", "setting": "[25]", "value": "> 100", "unit": "µM"},
      {"measurement": "TGI", "setting": "[26]", "value": "> 100", "unit": "µM"},
      {"measurement": "TGI", "setting": "[27]", "value": 46.3, "unit": "µM"},
      {"measurement": "TGI", "setting": "[28]", "value": "> 100", "unit": "µM"},
      {"measurement": "TGI", "setting": "[29]", "value": "> 100", "unit": "µM"},
      {"measurement": "TGI", "setting": "[30]", "value": "> 100", "unit": "µM"},
      {"measurement": "TGI", "setting": "[31]", "value": 625, "unit": "nM"},
      {"measurement": "TGI", "setting": "[32]", "value": "> 100", "unit": "µM"}
    ]},
    {"smiles": "N#CCCN(CCC#N)c1ccc(/C=C(\\NC(=O)c2cc([N+](=O)[O-])ccc2Cl)C(=O)Nc2ccccc2)cc1", "values": [
      {"measurement": "TGI", "setting": "[33]", "value": "> 100", "unit": "µM"},
      {"measurement": "TGI", "setting": "[34]", "value": "> 100", "unit": "µM"},
      {"measurement": "TGI", "setting": "[1]", "value": "> 100", "unit": "µM"},
      {"measurement": "TGI", "setting": "[2]", "value": "> 100", "unit": "µM"},
      {"measurement": "TGI", "setting": "[35]", "value": "> 100", "unit": "µM"},
      {"measurement": "TGI", "setting": "[3]", "value": "> 100", "unit": "µM"},
      {"measurement": "TGI", "setting": "[36]", "value": "> 100", "unit": "µM"},
      {"measurement": "TGI", "setting": "[4]", "value": "> 100", "unit": "µM"},
      {"measurement": "TGI", "setting": "[5]", "value": "> 100", "unit": "µM"},
      {"measurement": "TGI", "setting": "[37]", "value": "> 100", "unit": "µM"},
      {"measurement": "TGI", "setting": "[38]", "value": "> 100", "unit": "µM"},
      {"measurement": "TGI", "setting": "[8]", "value": "> 100", "unit": "µM"},
      {"measurement": "TGI", "setting": "[9]", "value": "> 100", "unit": "µM"},
      {"measurement": "TGI", "setting": "[10]", "value": "> 100", "unit": "µM"},
      {"measurement": "TGI", "setting": "[11]", "value": "> 100", "unit": "µM"},
      {"measurement": "TGI", "setting": "[39]", "value": "> 100", "unit": "µM"},
      {"measurement": "TGI", "setting": "[12]", "value": "> 100", "unit": "µM"},
      {"measurement": "TGI", "setting": "[14]", "value": "> 100", "unit": "µM"},
      {"measurement": "TGI", "setting": "[15]", "value": "> 100", "unit": "µM"},
      {"measurement": "TGI", "setting": "[40]", "value": "> 100", "unit": "µM"},
      {"measurement": "TGI", "setting": "[41]", "value": "> 100", "unit": "µM"},
      {"measurement": "TGI", "setting": "[17]", "value": "> 100", "unit": "µM"},
      {"measurement": "TGI", "setting": "[42]", "value": "> 100", "unit": "µM"},
      {"measurement": "TGI", "setting": "[43]", "value": "> 100", "unit": "µM"},
      {"measurement": "TGI", "setting": "[19]", "value": "> 100", "unit": "µM"},
      {"measurement": "TGI", "setting": "[21]", "value": "> 100000", "unit": "nM"},
      {"measurement": "TGI", "setting": "[22]", "value": "> 100", "unit": "µM"},
      {"measurement": "TGI", "setting": "[23]", "value": "> 100", "unit": "µM"},
      {"measurement": "TGI", "setting": "[44]", "value": "> 100", "unit": "µM"},
      {"measurement": "TGI", "setting": "[45]", "value": "> 100", "unit": "µM"},
      {"measurement": "TGI", "setting": "[46]", "value": "> 100", "unit": "µM"},
      {"measurement": "TGI", "setting": "[47]", "value": "> 100", "unit": "µM"},
      {"measurement": "TGI", "setting": "[48]", "value": "> 100", "unit": "µM"},
      {"measurement": "TGI", "setting": "[49]", "value": "> 100", "unit": "µM"},
      {"measurement": "TGI", "setting": "[25]", "value": "> 100", "unit": "µM"},
      {"measurement": "TGI", "setting": "[26]", "value": "> 100", "unit": "µM"},
      {"measurement": "TGI", "setting": "[50]", "value": "> 100", "unit": "µM"},
      {"measurement": "TGI", "setting": "[27]", "value": "> 100", "unit": "µM"},
      {"measurement": "TGI", "setting": "[29]", "value": "> 100", "unit": "µM"},
      {"measurement": "TGI", "setting": "[30]", "value": "> 100", "unit": "µM"},
      {"measurement": "TGI", "setting": "[51]", "value": "> 100", "unit": "µM"},
      {"measurement": "TGI", "setting": "[31]", "value": "> 100000", "unit": "nM"},
      {"measurement": "TGI", "setting": "[52]", "value": "> 100", "unit": "µM"},
      {"measurement": "TGI", "setting": "[53]", "value": "> 100", "unit": "µM"},
      {"measurement": "TGI", "setting": "[54]", "value": "> 100", "unit": "µM"},
      {"measurement": "TGI", "setting": "[55]", "value": "> 100", "unit": "µM"},
      {"measurement": "TGI", "setting": "[32]", "value": "> 100", "unit": "µM"}
    ]}
  ]
}
